This note sets out measurements from PMC7539012, “Hyperphosphorylated tau aggregation and cytotoxicity modulators screen identified prescription drugs linked to Alzheimer's disease and cognitive functions” (Scientific Reports, 2020).

Where a name gives a salt, the structure may show the parent alone.

The first test has as its system T1, 1N4R p-tau.
T1 construct: made in house; host or cells: E. coli (PIMAX system)
The experiment in a line: p-tau aggregation modulator screen of 1280-compound library (ThS fluorescence net change over 16 h).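 As to ThS net change: 30 µM compound with 6 µM p-tau over 16 h.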 It counts as biochemical. Details: key to PTAI>3SD: *: PTAI>3SD.
Details: not given
For the compound `C=CC[N@@+]12CC[C@]34c5ccccc5N5/C=C6\C7N(/C=C(\C53)[C@@H](C[C@@H]41)/C(=C/CO)C2)c1ccccc1[C@@]71CC[N@@+]2(CC=C)C/C(=C\CO)[C@@H]6C[C@@H]12.[Cl-].[Cl-]` (some centres unmarked) [Alcuronium chloride], the ThS net change was 460.
As to `NCCCC(O)(P(=O)(O)O)P(=O)(O)O` [Alendronate sodium], the ThS net change is on record as 381.
Still for that read-out and setting: the figure for `CC(=O)[C@H]1CC[C@H]2[C@@H]3CC[C@H]4C[C@H](O)CC[C@]4(C)[C@H]3C(=O)C[C@]12C` [Alfaxalone] is 420; for `C=CC[C@]1(O)CC[C@H]2[C@@H]3CCC4=CC(=O)CCC4=C3C=C[C@@]21C` [Altrenogest] it is 432; for `NCC[C@H](O)C(=O)N[C@@H]1C[C@H](N)[C@@H](O[C@H]2O[C@H](CN)[C@@H](O)[C@H](O)[C@H]2O)[C@H](O)[C@H]1O[C@H]1O[C@H](CO)[C@@H](O)[C@H](N)[C@H]1O.O.O` [Amikacin hydrate] it is 418.
Still for that read-out and setting: the same measure for `NCCCCCC(=O)O` [Aminocaproic acid]: 456; for `CCN(CC)Cc1cc(Nc2ccnc3cc(Cl)ccc23)ccc1O.Cl.Cl.O.O` [Amodiaquin dihydrochloride dihydrate]: 309.
Compound `CCC(C)(C)c1ccc(CC(C)CN2C[C@@H](C)O[C@@H](C)C2)cc1` (some centres unmarked) [Amorolfine hydrochloride] had a ThS net change of 413.
The same measure, in the same setting: the figure for `CCCc1ncc(C[n+]2ccccc2C)c(N)n1` [Amprolium hydrochloride] is 424; for `C[C@]12CC[C@@H](O)C[C@@H]1CC[C@@H]1[C@@H]2CC[C@]2(C)C(=O)CC[C@@H]12` [Androsterone] it is 449.

The test is the same for the next values; noted with them: 1280-compound library screen; ThS fluorescence net change over 16 h.
Compound `COc1cc2nc(N(C)CCCNC(=O)C3CCCO3)nc(N)c2cc1OC` (centres unmarked) [Alfuzosin hydrochloride] gave a ThS net change of 391.
The compound `C=CCN1CCCC1CNC(=O)c1cc2nn[nH]c2cc1OC.Cl` (centres unmarked) [Alizapride HCl] showed a ThS net change of 383.
Compound `NC(=O)NC1NC(=O)NC1=O` (centres unmarked) [Allantoin] showed a ThS net change of 390.
Same read-out and setting: the figure for `Oc1ncnc2[nH]ncc12` [Allopurinol] is 396.
Still for that read-out and setting: the figure for `C=CCSCC1Nc2cc(Cl)c(S(N)(=O)=O)cc2S(=O)(=O)N1` (centres unmarked) [Althiazide] is 409; for `NCCCNCCSP(=O)(O)O` [Amifostine] it is 392; for `N=C(N)NC(=O)c1nc(Cl)c(N)nc1N` [Amiloride hydrochloride dihydrate] it is 401.
Compound `Nc1c2ccccc2nc2ccccc12` [Aminacrine] came in with a ThS net change of 408.
On to `Cn1c(=O)c2[nH]cnc2n(C)c1=O` [Aminophylline], for which the ThS net change turned out to be 403.
Regarding `CC1(C)S[C@@H]2[C@H](NC(=O)[C@H](N)c3ccc(O)cc3)C(=O)N2[C@H]1C(=O)O` [Amoxicillin], the ThS net change was 388.
`C[C@@H]1[C@H](O)[C@@H](C)/C=C/C=C/C=C/C=C/C=C/C=C/C=C/[C@H](O[C@@H]2O[C@H](C)[C@@H](O)[C@H](N)[C@@H]2O)C[C@@H]2O[C@](O)(C[C@@H](O)C[C@@H](O)[C@H](O)CC[C@@H](O)C[C@@H](O)CC(=O)O[C@H]1C)C[C@H](O)[C@H]2C(=O)O` [Amphotericin B] gave a ThS net change of 396.
Consider `Cc1c(N)c(=O)n(-c2ccccc2)n1C` [Ampyrone], for which the ThS net change is reported as 388.
The same measure, in the same setting: the same measure for `Nc1cc(-c2ccncc2)c[nH]c1=O` [Amrinone]: 410.
`COc1ccc(C(=O)N2CCCC2=O)cc1` [Aniracetam] gave a ThS net change of 408.
On to `c1ccc(CN(CC2=NCCN2)c2ccccc2)cc1` [Antazoline hydrochloride], for which the ThS net change is given as 399.
As for `OC[C@H]1O[C@@H](Oc2ccc(O)cc2)[C@H](O)[C@@H](O)[C@@H]1O` [Arbutin], the ThS net change worked out at 409.
In turn, `CC1CNc2c(cccc2S(=O)(=O)N[C@@H](CCCNC(=N)N)C(=O)N2CC[C@@H](C)C[C@@H]2C(=O)O)C1` (some centres unmarked) [Argatroban] came in with a ThS net change of 388.
On the same count and under the same terms, the figure for `O=C1CCc2ccc(OCCCCN3CCN(c4cccc(Cl)c4Cl)CC3)cc2N1` [Aripiprazole] is 386.

Staying with this test, now noted: 1280-compound library screen; […].
`CC(=O)OCC(=O)[C@H]1CC[C@H]2[C@@H]3CC[C@H]4C[C@H](O)CC[C@]4(C)[C@H]3C(=O)C[C@]12C` [Alfadolone acetate] returned a ThS net change of 396.
The same measure, in the same setting: the same measure for `CCN(CC)C(C)C(=O)c1ccccc1` (centres unmarked) [Amfepramone hydrochloride]: 388.

Staying with this test, now noted: flag: p-tau aggregation inhibitor, ThS net change more than 3 SD from mean.
Regarding `O=C1CN2Cc3c(ccc(Cl)c3Cl)N=C2N1` [Anagrelide], the “PTAI>3SD” value is listed as “*”.
The same measure, in the same setting: the same measure for `COc1ccc(-c2cc(=S)ss2)cc1` [Anethole-trithione]: “*”; for `O=C1c2c(O)cccc2Cc2cccc(O)c21` [Anthralin]: “*”.

The test is the same for the next values; noted with them: library screen, ThS fluorescence net change over 16 h with p-tau.
Compound `CCCCC(CC)CNC(=N)NC(=N)NCCCCCCNC(=N)NC(=N)NCC(CC)CCCC` (centres unmarked) [Alexidine dihydrochloride] had a ThS net change of 327.
On the same count and under the same terms, the same measure for `C=C1/C(=C\C=C2/CCC[C@]3(C)[C@@H]([C@H](C)CCCC(C)C)CC[C@@H]23)C[C@@H](O)C[C@@H]1O` [Alfacalcidol]: 284; for `O=C1CN2Cc3c(ccc(Cl)c3Cl)N=C2N1` [Anagrelide]: 22.
In turn, `COc1ccc(-c2cc(=S)ss2)cc1` [Anethole-trithione] gave a ThS net change of 46.
In turn, `O=C1c2c(O)cccc2Cc2cccc(O)c21` [Anthralin] gave a ThS net change of 85.
As for `CCCCCC[C@H]1C(=O)O[C@H](C)[C@H](NC(=O)c2cccc(NC=O)c2O)C(=O)O[C@@H](C)[C@@H]1OC(=O)CC(C)C` [Antimycin A], the ThS net change came out at 211.

The same test, now with this note: p-tau aggregation modulator screen of 1280-compound library; ThS fluorescence net change.
For the compound `C=CCc1ccccc1OCC(O)CNC(C)C` (centres unmarked) [Alprenolol hydrochloride], the ThS net change amounted to 376.
On the same count and under the same terms, the figure for `CCN(CCCc1ccccc1)CCCc1ccccc1.O=C(O)CC(O)(CC(=O)O)C(=O)O` [Alverine citrate salt] is 374; for `Cl.Nc1c(Br)cc(Br)cc1CN[C@H]1CC[C@H](O)CC1` [Ambroxol hydrochloride] it is 364.
`Cc1c(N(C)C)c(=O)n(-c2ccccc2)n1C` [Amidopyrine]: the ThS net change is reported as 368.
`Nc1ccc(C(=O)NCC(=O)O)cc1` [Aminohippuric acid]: the ThS net change was found to be 344.
Regarding `c1ccc(CNc2ncnc3nc[nH]c23)cc1` [Aminopurine, 6-benzyl], the ThS net change was 348.
On the same count and under the same terms, the same measure for `CN(C)CCCO[C@@H]1[C@H]2OC(C)(C)O[C@H]2O[C@@H]1[C@H](O)CO` [Amiprilose hydrochloride]: 367; for `CN(C)CCC=C1c2ccccc2CCc2ccccc21.Cl` [Amitryptiline hydrochloride]: 362.
Same read-out and setting: the same measure for `CCOC(=O)C1=C(COCCN)NC(C)=C(C(=O)OC)C1c1ccccc1Cl` (centres unmarked) [Amlodipine]: 351.
For `CC1(C)S[C@@H]2[C@H](NC(=O)[C@H](N)c3ccccc3)C(=O)N2[C@H]1C(=O)O` [Ampicillin trihydrate], the ThS net change was 355.
Still for that read-out and setting: the same measure for `Cc1c(O)c(=O)n(-c2ccccc2)n1C` [Antipyrine, 4-hydroxy]: 371; for `C[C@@H]1CC[C@H]2[C@@H](C)C(=O)O[C@@H]3O[C@@]4(C)CC[C@@H]1[C@]32OO4` [Artemisinin]: 356.

Still in this test, the particulars now being: p-tau aggregation modulator screen of 1280-compound library; […].
The compound `CCC(=O)OCC(=O)[C@@]1(OC(=O)CC)[C@H](C)C[C@H]2[C@H]3[C@H]([C@@H](O)C[C@@]21C)[C@@]1(C)C=CC(=O)C=C1C[C@H]3Cl` [Alclometasone dipropionate] gave a ThS net change of 363.
`CC(=O)[C@@]12O[C@](C)(c3ccccc3)O[C@@H]1C[C@H]1[C@@H]3CCC4=CC(=O)CC[C@]4(C)[C@H]3CC[C@@]12C` [Algestone acetophenide] came in with a ThS net change of 336.
In turn, `CC(C)c1ccc2oc3nc(N)c(C(=O)O)cc3c(=O)c2c1` [Amlexanox] displayed a ThS net change of 376.
Same read-out and setting: the same measure for `CCC(C)(CN(C)C)OC(=O)c1ccccc1.Cl` (centres unmarked) [Amyleine hydrochloride]: 365; for `Cc1cc(=O)n(-c2ccccc2)n1C` [Antipyrine]: 359.

The same test, now with this note: p-tau aggregation modulator screen of the compound library, ThS fluorescence net change.
As for `Cc1[nH]cnc1CN1CCc2c(c3ccccc3n2C)C1=O` [Alosetron hydrochloride], the ThS net change is reported as 429.
In turn, `CCCCC[C@H](O)/C=C/[C@H]1[C@H](O)CC(=O)[C@@H]1CCCCCCC(=O)O` [Alprostadil] registered a ThS net change of 445.
Still for that read-out and setting: the same measure for `CN(C)c1nc(N(C)C)nc(N(C)C)n1` [Altretamine]: 414; for `COC(c1ccccc1)(c1ccccc1)[C@H](Oc1nc(C)cc(C)n1)C(=O)O` [Ambrisentan]: 506; for `CC(=O)OCC(=O)[C@@]12OC3(CCCC3)O[C@@H]1C[C@H]1[C@@H]3CCC4=CC(=O)C=C[C@]4(C)[C@@]3(F)[C@@H](O)C[C@@]12C` [Amcinonide]: 477.
Still for that read-out and setting: the same measure for `CCCCc1oc2ccccc2c1C(=O)c1cc(I)c(OCCN(CC)CC)c(I)c1` [Amiodarone hydrochloride]: 436; for `CCN1CCCC1CNC(=O)c1cc(S(=O)(=O)CC)c(N)cc1OC` (centres unmarked) [Amisulpride]: 428; for `Clc1ccc2c(c1)C(N1CCNCC1)=Nc1ccccc1O2` [Amoxapine]: 416.
In turn, `CCOC(=O)OC(C)OC1=C(C(=O)Nc2ccccn2)N(C)S(=O)(=O)c2ccccc21` (centres unmarked) [Ampiroxicam] had a ThS net change of 493.
The compound `CC(C)(C#N)c1cc(Cn2cncn2)cc(C(C)(C)C#N)c1` [Anastrozole] had a ThS net change of 484.
Still for that read-out and setting: the figure for `CN[C@@H]1[C@@H](O[C@H]2O[C@H](CO)[C@@H](N)[C@H](O)[C@H]2O)OC2C[C@@H](N)[C@@H](O[C@H]3[C@H](O)[C@@H](O)[C@H](N)C[C@@H]3N)OC2[C@@H]1O` (some centres unmarked) [Apramycin] is 416; for `C[C@@H](O[C@H]1OCCN(Cc2n[nH]c(=O)[nH]2)[C@H]1c1ccc(F)cc1)c1cc(C(F)(F)F)cc(C(F)(F)F)c1` [Aprepitant] it is 451.
